Read-outs that look alike come from different tables or passages of the source.
Key:
[1] = system: MHC Class I expression in A2780 human ovarian cancer cells; assay: MHC Class I expression in A2780 cells after alpelisib, TTFields or both; assay type: cell-based; details: TTFields (1.75V/cm and 200 kHz) plus 250 nM alpelisib for 72 h, then 72 h without drug under TTFields, vs untreated control and single treatments
Method: A2780 human ovarian cancer cells (20,000 cells/well) were incubated for 144 h with the following conditions: Control untreated; 250 nM alpelisib (PI3K inhibitor) for 72 h—media containing the drug was removed, and fresh media without alpelisib was added for an additional 72 h incubation; TTFields (1.75V/cm and 200 kHz); TTFields plus 250 nM alpelisib for 72 h—media containing the drug was removed, and fresh media without alpelisib was added for an additional 72 h incubation under TTFields condition.

[2] = system: MHC Class I expression in Panc02-luc mouse pancreatic cells; details: TTFields (1.75V/cm and 150 kHz) plus 10 μM chloroquine, 72 h, vs untreated control
Method: Panc02-luc mouse pancreatic cells (10,000 cells/well) were incubated for 72 h with the following conditions: Control untreated, 10 μM chloroquine (autophagy inhibitor), TTFields (1.75V/cm and 150 kHz), and TTFields plus 10 μM chloroquine.
In FIG. 3, MHC Class I expression was evaluated in Panc02-luc mouse pancreatic cells (an orthotopic model of pancreatic cancer) following chloroquine (an autophagy inhibitor) treatment alone, TTFields application alone, and the combination of TTFields application with concomitant chloroquine treatment.

| Structure (SMILES) | MHC Class I expression [1] | MHC Class I expression ([1]; listed as Alpelisib) | MHC Class I expression [2] | MHC Class I expression ([2]; listed as Chloroquine) |
| --- | --- | --- | --- | --- |
| Cc1nc(NC(=O)N2CCC[C@H]2C(N)=O)sc1-c1ccnc(C(C)(C)C(F)(F)F)c1 [alpelisib] | greater than in the untreated control group as well as in the single treatment groups | increased with concomitant Alpelisib treatment | – | – |
| CCN(CC)CCCC(C)Nc1ccnc2cc(Cl)ccc12 (stereo not shown) [chloroquine] | – | – | increased significantly above the untreated cells | increased with concomitant Chloroquine treatment |

— patent US20250099545A1, “COMPOSITIONS, SYSTEMS, AND METHODS FOR TREATING CANCER USING TUMOR TREATING FIELDS WITH IMMUNE CHECKPOINT INHIBITORS AND MHC CLASS I ACTIVATORS” (Novocure GmbH, priority 2023, published 2025)
